# US9682995B2, “Amino-substituted isothiazoles” (BAYER PHARMA AKTIENGESELLSCHAFT, priority 2013, dated 2017)
# Key:
# [1] = tested on: spindle assembly checkpoint; test: SAC-Formation - Nocodazole-Induced Assay; assay type: cell-based; details: Homo sapiens; HeLa cells, nocodazole 0.1 μg/ml, 24 h, phosphorylated histone H3 on serine 10
# Source text: (§1) The spindle assembly checkpoint assures the proper segregation of chromosomes during mitosis. Upon entry into mitosis, chromosomes begin to condensate which is accompanied by the phosphorylation of histone H3 on serine 10. Dephosphorylation of histone H3 on serine 10 begins in anaphase and ends at early telophase. Accordingly, phosphorylation of histone H3 on serine 10 can be utilized as a marker of cells in mitosis. Nocodazole is a microtubule destabilizing substance. Paclitaxel is a microtubule stabilizing compound. Thus, nocodazole as well as paclitaxel interfere with microtubule dynamics and mobilize the spindle assembly checkpoint. […] The mitotic breakthrough can be detected by the decrease of cells with phosphorylation of histone H3 on serine 10. This decline is used as a marker to determine the capability of compounds of the present invention to induce a mitotic breakthrough. The typical morphological alteration of nuclei with a prematurely completed mitosis after SAC-inhibition can be monitored via image analysis routines supporting those findings.
# (§2) The nocodazole and paclitaxel variations were used to focus on compounds that are capable of inhibiting a SAC induced by both microtubule destabilization as well as microtubule stabilization. When SAC inducing agents and compounds are given simultaneously, inhibitors that effectively block the SAC during formation or abrogation are identified. When cells are incubated with a SAC inducing agent and the SAC interfering compound is given after a defined time, inhibitors are identified that effectively block SAC abrogation.
# (§3) Cultivated cells of the human cervical tumor cell line HeLa (ATCC CCL-2) were plated at a density of 1000 cells/well in a 1536-well microtiter plate in 2 μl PAA Ham's F12 Medium supplemented with 1% (v/v) glutamine, 1% (v/v) penicillin, 1% (v/v) streptomycin and 10% (v/v) fetal calf serum. After incubation overnight at 37° C., 10 μl/well nocodazole at a final concentration of 0.1 μg/ml were added to cells. Test compounds solubilized in dimethyl sulfoxide (DMSO) were added at various concentrations (0 μM, as well as in the range of 0.005 μM-20 μM; the final concentration of the solvent DMSO was 0.5% (v/v)). Cells were incubated for 24 h at 37° C. in the presence of test compounds in combination with nocodazole. Thereafter, cells were fixed in 4% (v/v) paraformaldehyde in phosphate buffered saline (PBS) at 4° C. overnight then permeabilized in 0.1% (v/v) Triton X™ 100 in PBS at room temperature for 20 min and blocked in 0.5% (v/v) bovine serum albumin (BSA) in PBS at room temperature for 15 min. After washing with PBS, 5 μl/well antibody solution (anti-phospho-histone H3 clone 3H10, FITC; Millipore, Cat #16-222; 1:1000 dilution) was added to cells, which were incubated for 2 h at room temperature. Afterwards, cells were washed with PBS and 5 μl/well solution of HOECHST 33342 dye (5 μg/ml) was added to cells and cells were incubated 15 min at room temperature in the dark. Cells were washed twice with PBS then covered with PBS and stored at 4° C. until analysis. Images were acquired with a PERKIN ELMER OPERA™ High-Content Analysis reader. Images were analyzed with image analysis software MetaXpress™ from Molecular devices utilizing the Mitotic Index application module. In this assay both labels HOECHST 33342 and phosphorylated Histone H3 on serine 10 were measured. HOECHST 33342 labels the DNA and is used to count the cell number. The staining of phosphorylated Histone H3 on serine 10 determines the number of mitotic cells. […] Otherwise cells were arrested at G2/M phase of the cell cycle progression. The raw assay data were further analyzed by four-parametric hill equation using Genedata's Assay Analyzer and Condoseo software.
# [2] = tested on: spindle assembly checkpoint; test: SAC-Formation - Paclitaxel-Induced Assay; assay type: cell-based; details: Homo sapiens; HeLa cells, paclitaxel 0.05 μM, 24 h, phosphorylated histone H3 on serine 10
# Source text: as §1, §2
# as §3, with “paclitaxel” for “nocodazole”, “0.05 μM” for “0.1 μg/ml”, “paclitaxel.” for “nocodazole.”
Structure (SMILES),IC50 [1] [µM],IC50 [2] [µM]
"COC(=O)c1cnc(Nc2snc(C)c2C(=O)Nc2ccc(F)c(F)c2)o1 [Example 97, Methyl 2-({4-[(3,4-difluoro-phenyl)carbamoyl]-3-methyl-1,2-thiazol-5-yl}amino)-1,3-oxazole-5-carboxylate]",5.9,8.1
"CCc1ccccc1NC(=O)c1c(C)nsc1Nc1ncnc2ccccc12 [Example 10, N-(2-Ethylphenyl)-3-methyl-5-(quinazolin-4-ylamino)-1,2-thiazole-4-carboxamide]",6.5,11
"CCc1ccccc1NC(=O)c1c(C)nsc1Nc1nc2ccccc2s1 [Example 14, 5-(1,3-Benzothiazol-2-ylamino)-N-(2-ethylphenyl)-3-methyl-1,2-thiazole-4-carboxamide]",0.35,0.76
"CCc1ccccc1NC(=O)c1c(C)nsc1Nc1nc(C)nc2ccccc12 [Example 35, N-(2-Ethylphenyl)-3-methyl-5-[(2-methylquinazolin-4-yl)amino]-1,2-thiazole-4-carboxamide]",0.26,4.6
"COc1ncc(NC(=O)c2c(C)nsc2Nc2cnc3ccccc3n2)cc1C [Example 121, N-(6-Methoxy-5-methylpyridin-3-yl)-3-methyl-5-(quinoxalin-2-ylamino)-1,2-thiazole-4-carboxamide]",0.13,0.75
"Cc1nsc(Nc2ccn3nccc3n2)c1C(=O)Nc1ccc(F)c(F)c1 [Example 57, N-(3,4-Difluorophenyl)-3-methyl-5-(pyrazolo[1,5-a]pyrimidin-5-ylamino)-1,2-thiazole-4-carboxamide]",0.52,0.39
"COc1ccc(Oc2ccc(NC(=O)c3c(C)nsc3Nc3cc(C#N)ccn3)cn2)cc1 [Example 117, 5-[(4-Cyanopyridin-2-yl)amino]-N-[6-(4-methoxyphenoxy)pyridin-3-yl]-3-methyl-1,2-thiazole-4-carboxamide]",0.27,2
"CCOC(=O)c1sc(Nc2snc(C)c2C(=O)Nc2ccc(OC)nc2)nc1C [Example 30, Ethyl 2-({4-[(6-methoxypyridin-3-yl)carbamoyl]-3-methyl-1,2-thiazol-5-yl}amino)-4-methyl-1,3-thiazole-5-carboxylate]",0.092,0.32
"CCOc1ccc(NC(=O)c2c(C)nsc2Nc2cnc3ccccc3n2)cn1 [Example 119, N-(6-Ethoxypyridin-3-yl)-3-methyl-5-(quinoxalin-2-ylamino)-1,2-thiazole-4-carboxamide]",0.088,2.5
"Cc1nsc(Nc2cnc3ccccc3n2)c1C(=O)Nc1ccc(OC2CCCCC2)nc1 [Example 115, N-[6-(Cyclohexyloxy)pyridin-3-yl]-3-methyl-5-(quinoxalin-2-ylamino)-1,2-thiazole-4-carboxamide]",0.09,0.12
"Cc1nsc(Nc2ccc(C#N)cn2)c1C(=O)Nc1ccc(Cl)c(F)c1 [Example 52, N-(4-Chloro-3-fluorophenyl)-5-[(5-cyanopyridin-2-yl)amino]-3-methyl-1,2-thiazole-4-carboxamide]",0.034,0.016

# Other lines, results leading:
IC50 [1] [µM],IC50 [2] [µM],Structure (SMILES)
0.054,0.14,"COc1ccc(NC(=O)c2c(C)nsc2Nc2cnc3cc(C(F)(F)F)ccc3n2)cn1 [Example 45, N-(6-Methoxypyridin-3-yl)-3-methyl-5-{[6-(trifluoromethyl)quinoxalin-2-yl]amino}-1,2-thiazole-4-carboxamide]"
0.092,0.063,"COc1ccc(NC(=O)c2c(C)nsc2Nc2nc3c(C(F)(F)F)cccc3s2)cc1F [Example 47, N-(3-Fluoro-4-methoxyphenyl)-3-methyl-5-{[4-(trifluoromethyl)-1,3-benzothiazol-2-yl]amino}-1,2-thiazole-4-carboxamide]"
5.5,3.4,"CCOC(=O)c1coc(Nc2snc(C)c2C(=O)Nc2ccc(OC)nc2)n1 [Example 100, Ethyl 2-({4-[(6-methoxypyridin-3-yl)carbamoyl]-3 methyl-1,2-thiazol-5-yl}amino)-1,3-oxazole-4-carboxylate]"
1.3,3,"CCc1ccccc1NC(=O)c1c(C)nsc1Nc1cc(-n2ccnc2)ncn1 [Example 9, N-(2-Ethylphenyl)-5-{[6-(1H-imidazol-1-yl)pyrimidin-4-yl]amino}-3-methyl-1,2-thiazole-4-carboxamide]"
0.28,3.6,"CCc1ccccc1NC(=O)c1c(C)nsc1Nc1nc2ccccc2nc1C [Example 21, N-(2-Ethylphenyl)-3-methyl-5-[(3-methylquinoxalin-2-yl)amino]-1,2-thiazole-4-carboxamide]"
9.8,> 20,"CCc1ccccc1NC(=O)c1c(C)nsc1Nc1nccc(OC)n1 [Example 16, N-(2-Ethylphenyl)-5-[(4-methoxypyrimidin-2-yl)amino]-3-methyl-1,2-thiazole-4-carboxamide]"
16,> 20,"CCc1ccccc1NC(=O)c1c(C)nsc1Nc1cc(NC)ncn1 [Example 15, N-(2-Ethylphenyl)-3-methyl-5-{[6-(methylamino)pyrimidin-4-yl]amino}-1,2-thiazole-4-carboxamide]"
3.8,8.5,"COc1ccc(NC(=O)c2c(C)nsc2Nc2nccnc2C#N)cn1 [Example 24, 5-[(3-Cyanopyrazin-2-yl)amino]-N-(6-methoxypyridin-3-yl)-3-methyl-1,2-thiazole-4-carboxamide]"
0.019,0.03,"Cc1nsc(Nc2cc(C#N)ccn2)c1C(=O)Nc1ccc(Cl)c(F)c1 [Example 54, N-(4-Chloro-3-fluorophenyl)-5-[(4-cyanopyridin-2-yl)amino]-3-methyl-1,2-thiazole-4-carboxamide]"
0.31,0.7,"CCOC(=O)c1cnc(Nc2snc(C)c2C(=O)Nc2ccc(OC)nc2)s1 [Example 29, Ethyl 2-({4-[(6-methoxypyridin-3-yl)carbamoyl]-3-methyl-1,2-thiazol-5-yl}amino)-1,3-thiazole-5-carboxylate]"
